Assays:
Assay in all cases: Ras-Raf disruption / FRET / MOA assay (BRAF RBD)
Format in all cases: biochemical
KRAS G12S = KRAS G12S (Homo sapiens, UniProt P01116+P62937, G12S); details: Ras-Raf disruption, with Cyclophilin A; read-out: KRAS G12S FRET data IC50
Description: (§1) Disruption of […] Ras-binding Domain (BRAF^RBD) Interaction with K-Ras by Compounds of the Invention (also Called a FRET Assay or an MOA Assay)
(§2) Note—The following protocol describes a procedure for monitoring disruption of K-Ras G12C (GMP-PNP) binding to BRAF^RBD by a compound of the invention. This protocol may also be executed substituting other Ras proteins or nucleotides, such as K-Ras G12D and K-Ras G13D.
(§3) The purpose of this biochemical assay was to measure the ability of test compounds to facilitate ternary complex formation between a nucleotide-loaded K-Ras isoform and Cyclophilin A; the resulting ternary complex disrupts binding to a BRAF^RBD construct, inhibiting K-Ras signaling through a RAF effector. Data is reported as IC50 values.
(§4) In assay buffer containing 25 mM HEPES pH 7.3, 0.002% Tween20, 0.1% BSA, 100 mM NaCl and 5 mM MgCl2, tagless Cyclophilin A, His6-K-Ras-GMPPNP, and GST-BRAF^RBD were combined in a 384-well assay plate at final concentrations of 25 μM, 12.5 nM, and 50 nM, respectively. Compound was present in plate wells as a 10-point 3-fold dilution series starting at a final concentration of 30 μM. After incubation at 25° C. for 3 hours, a mixture of anti-His Eu-W1024 and anti-GST allophycocyanin was then added to assay sample wells at final concentrations of 10 nM and 50 nM, respectively, and the reaction incubated for an additional 1.5 hours. […] Compounds that facilitate disruption of a K-Ras:RAF complex were identified as those eliciting a decrease in the TR-FRET ratio relative to DMSO control wells.

KRAS WT = KRAS WT (Homo sapiens, UniProt P01116+P62937); details: Ras-Raf disruption, with Cyclophilin A; read-out: KRAS WT FRET data IC50
Description: as §1, §2, §3, §4

KRAS G13C = KRAS G13C (Homo sapiens, UniProt P01116+P62937, G13C); details: Ras-Raf disruption, with Cyclophilin A; read-out: KRAS G13C FRET data IC50
Description: as §1, §2, §3, §4

NRAS G12C = NRAS G12C (Homo sapiens, UniProt P01111+P62937, G12C); details: NRAS G12C; read-out: NRAS G12C FRET data IC50
Description: as §1, §2, §3, §4

KRAS G12V = KRAS G12V (Homo sapiens, UniProt P01116+P62937, G12V); details: Ras-Raf disruption, with Cyclophilin A; read-out: KRAS G12V FRET data IC50
Description: as §1, §2, §3, §4

KRAS G13D = KRAS G13D (Homo sapiens, UniProt P01116+P62937, G13D); details: Ras-Raf disruption, with Cyclophilin A; read-out: KRAS G13D FRET data IC50
Description: as §1, §2, §3, §4

KRAS G12D = KRAS G12D (Homo sapiens, UniProt P01116+P62937, G12D); details: Ras-Raf disruption, with Cyclophilin A; read-out: KRAS G12D FRET data IC50
Description: as §1, §2, §3, §4

KRAS G12C = KRAS G12C (Homo sapiens, UniProt P01116+P62937, G12C); details: Ras-Raf disruption, with Cyclophilin A; read-out: KRAS G12C FRET data IC50
Description: as §1, §2, §3, §4
as §3, with “is” for “was”, “Ras” for “K-Ras”, “cyclophilin” for “Cyclophilin”, “effector.” for “effector. Data is reported as IC50 values.”
In assay buffer containing 25 mM HEPES pH 7.3, 0.002% Tween20, 0.1% BSA, 100 mM NaCl and 5 mM MgCl2, tagless Cyclophilin A, His6-K-Ras-GMPPNP (or other Ras variant), and GST-BRAF^RBD are combined in a 384-well assay plate at final concentrations of 25 μM, 12.5 nM and 50 nM, respectively. Compound is present in plate wells as a 10-point 3-fold dilution series starting at a final concentration of 30 μM. After incubation at 25° C. for 3 hours, a mixture of Anti-His Eu-W1024 and anti-GST allophycocyanin is then added to assay sample wells at final concentrations of 10 nM and 50 nM, respectively, and the reaction incubated for an additional 1.5 hours. […] Compounds that facilitate disruption of a Ras:RAF complex are identified as those eliciting a decrease in the TR-FRET ratio relative to DMSO control wells.

KRAS G12V, sequence (P01116 1-169 isoform P01116-2 G12V limits assumed): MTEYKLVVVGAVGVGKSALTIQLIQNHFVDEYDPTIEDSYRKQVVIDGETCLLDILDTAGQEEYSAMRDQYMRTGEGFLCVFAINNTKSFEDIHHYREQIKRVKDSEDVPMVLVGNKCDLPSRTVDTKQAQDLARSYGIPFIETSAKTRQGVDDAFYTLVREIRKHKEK
KRAS G12V, sequence (P62937 whole entry): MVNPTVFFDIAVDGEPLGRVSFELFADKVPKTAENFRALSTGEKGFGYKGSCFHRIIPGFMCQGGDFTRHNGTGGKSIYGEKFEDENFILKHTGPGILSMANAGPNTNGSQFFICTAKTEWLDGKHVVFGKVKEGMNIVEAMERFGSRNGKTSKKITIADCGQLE
KRAS G13C, sequence (P01116 1-169 isoform P01116-2 G13C limits assumed): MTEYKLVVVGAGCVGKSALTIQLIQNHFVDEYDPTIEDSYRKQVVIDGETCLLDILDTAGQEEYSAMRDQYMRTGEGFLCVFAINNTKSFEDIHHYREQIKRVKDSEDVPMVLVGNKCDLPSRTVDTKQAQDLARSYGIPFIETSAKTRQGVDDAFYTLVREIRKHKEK
KRAS G13C, sequence (P62937 whole entry): as the sequence (P62937 whole entry) above
NRAS G12C, sequence (P01111 whole entry G12C): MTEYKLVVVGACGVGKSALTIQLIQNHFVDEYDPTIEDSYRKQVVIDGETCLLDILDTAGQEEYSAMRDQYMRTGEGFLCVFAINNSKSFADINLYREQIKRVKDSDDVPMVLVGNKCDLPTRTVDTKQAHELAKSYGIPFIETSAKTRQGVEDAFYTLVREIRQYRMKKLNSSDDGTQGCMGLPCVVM
NRAS G12C, sequence (P62937 whole entry): as the sequence (P62937 whole entry) above
KRAS G12D, sequence (P01116 1-169 isoform P01116-2 G12D limits assumed): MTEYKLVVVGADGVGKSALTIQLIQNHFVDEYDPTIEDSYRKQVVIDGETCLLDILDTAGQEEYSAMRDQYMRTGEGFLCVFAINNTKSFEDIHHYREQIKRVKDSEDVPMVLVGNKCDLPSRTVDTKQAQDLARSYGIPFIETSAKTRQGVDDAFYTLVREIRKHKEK
KRAS G12D, sequence (P62937 whole entry): as the sequence (P62937 whole entry) above
KRAS G12C, sequence (P01116 1-169 isoform P01116-2 G12C limits assumed): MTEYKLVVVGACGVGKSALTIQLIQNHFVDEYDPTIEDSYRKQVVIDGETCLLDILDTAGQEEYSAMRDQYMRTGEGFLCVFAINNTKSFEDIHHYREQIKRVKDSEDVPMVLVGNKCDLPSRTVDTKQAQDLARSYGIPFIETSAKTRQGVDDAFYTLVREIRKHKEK
KRAS G12C, sequence (P62937 whole entry): as the sequence (P62937 whole entry) above
KRAS G13D, sequence (P01116 1-169 isoform P01116-2 G13D limits assumed): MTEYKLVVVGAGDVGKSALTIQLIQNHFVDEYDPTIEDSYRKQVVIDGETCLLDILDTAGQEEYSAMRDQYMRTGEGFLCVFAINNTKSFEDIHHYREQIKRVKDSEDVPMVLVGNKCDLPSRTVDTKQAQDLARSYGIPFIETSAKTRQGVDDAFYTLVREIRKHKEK
KRAS G13D, sequence (P62937 whole entry): as the sequence (P62937 whole entry) above
KRAS WT, sequence (P01116 1-169 isoform P01116-2 limits assumed): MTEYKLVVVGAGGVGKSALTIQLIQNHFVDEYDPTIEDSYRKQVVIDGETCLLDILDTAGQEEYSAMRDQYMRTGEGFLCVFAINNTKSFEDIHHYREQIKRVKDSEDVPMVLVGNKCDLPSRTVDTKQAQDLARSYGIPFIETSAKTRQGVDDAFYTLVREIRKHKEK
KRAS WT, sequence (P62937 whole entry): as the sequence (P62937 whole entry) above
KRAS G12S, sequence (P01116 1-169 isoform P01116-2 G12S limits assumed): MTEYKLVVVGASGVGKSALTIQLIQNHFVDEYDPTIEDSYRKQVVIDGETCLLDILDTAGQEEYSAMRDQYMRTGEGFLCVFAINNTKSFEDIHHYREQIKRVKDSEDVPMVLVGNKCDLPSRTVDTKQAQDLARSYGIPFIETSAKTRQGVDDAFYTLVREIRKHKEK
KRAS G12S, sequence (P62937 whole entry, the tested form may be a part): as the sequence (P62937 whole entry) above

Compound	IC50 (KRAS G12S) [nM]	IC50 (KRAS WT) [nM]	IC50 (KRAS G13C) [nM]	IC50 (NRAS G12C) [nM]	IC50 (KRAS G12V) [nM]	IC50 (KRAS G13D) [nM]	IC50 (KRAS G12D) [nM]	IC50 (KRAS G12C) [nM]
CCn1c(-c2cnccc2COC)c2c3cc(ccc31)-c1cc(O)cc(c1)C[C@H](NC(=O)[C@H](C(C)C)N(C)C(=O)CN(C)C(=O)[C@H]1[C@@H](C(=O)OC)N1[S@+]([O-])C(C)(C)C)C(=O)N1CCC[C@H](N1)C(=O)OCC(C)(C)C2 (some centres unmarked) [Example 48]	10 to 100	100 to 1000	10 to 100	10 to 100	10 to 100	100 to 1000	100 to 1000	10 to 100
CCn1c(-c2cccnc2[C@H](C)OC)c2c3cc(ccc31)-c1cc(O)cc(c1)C[C@H](NC(=O)[C@H](C(C)C)N1CCC3(CCN(C(=O)[C@H]4CN4)C3)C1=O)C(=O)N1CCC[C@H](N1)C(=O)OCC(C)(C)C2 (some centres unmarked) [Example 59]	10 to 100	10 to 100	10 to 100	< 10	10 to 100	100 to 1000	10 to 100	10 to 100
CCn1c(-c2cccnc2[C@H](C)OC)c2c3cc(ccc31)-c1cccc(c1)C[C@H](NC(=O)[C@H](C(C)C)N(C)C(=O)CCN=C=NCc1ccccc1OC)C(=O)N1CCC[C@H](N1)C(=O)OCC(C)(C)C2 [Example 73]	1000 to 10000	1000 to 10000	1000 to 10000	10 to 100	> 10000	1000 to 10000	100 to 1000	10 to 100
CCn1c(-c2cccnc2[C@H](C)OC)c2c3cc(ccc31)-c1cccc(c1)C[C@H](NC(=O)[C@H](C(C)C)N(C)C(=O)[C@H]1CC[C@H](N=C=NCc3ccccc3OC)C1)C(=O)N1CCC[C@H](N1)C(=O)OCC(C)(C)C2 [Example 76]	> 10000	1000 to 10000	100 to 1000	100 to 1000	> 10000	> 10000	1000 to 10000	100 to 1000

Other lines, results leading:

IC50 (KRAS G12S) [nM]	IC50 (KRAS WT) [nM]	IC50 (KRAS G13C) [nM]	IC50 (NRAS G12C) [nM]	IC50 (KRAS G12V) [nM]	IC50 (KRAS G13D) [nM]	IC50 (KRAS G12D) [nM]	IC50 (KRAS G12C) [nM]	Compound
> 10000	> 10000	> 10000	> 10000	> 10000	> 10000	> 10000	> 10000	CCn1c(-c2cnccc2COC)c2c3cc(ccc31)-c1cccc(c1)C[C@H](NC(=O)[C@H](C(C)C)N(C)C(=O)CC(C)(C)N=C=Nc1ccc(OC)cc1)C(=O)N1CCC[C@H](N1)C(=O)OCC(C)(C)C2 [64 A and B]
1000 to 10000	1000 to 10000	100 to 1000	10 to 100	1000 to 10000	1000 to 10000	100 to 1000	10 to 100	CCn1c(-c2cccnc2[C@H](C)OC)c2c3cc(ccc31)-c1cccc(c1)C[C@H](NC(=O)[C@H](C(C)C)N(C)C(=O)CCN=C=NCCOC)C(=O)N1CCC[C@H](N1)C(=O)OCC(C)(C)C2 [Example 74]
1000 to 10000	1000 to 10000	10 to 100	10 to 100	1000 to 10000	> 10000	1000 to 10000	10 to 100	CCn1c(-c2cccnc2[C@H](C)OC)c2c3cc(ccc31)-c1cccc(c1)C[C@H](NC(=O)[C@H](C(C)C)N(C)C(=O)[C@H]1C[C@H](N=C=NCc3ccccc3OC)C1)C(=O)N1CCC[C@H](N1)C(=O)OCC(C)(C)C2 [Example 77]
